Test results reported in PubChem BioAssay AID1918958 (Molecular Pharmacology Branch, DTP, NCI, 2023).

Tested on: NCI-H196 complex spheroid viability
Assay: Anticancer human tumor NCI-H196 cell line growth inhibition [LSD1];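 also: spheroids exposed to agents for 7 days before readout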;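 as to viability, T/C: 100% = DMSO vehicle control viability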
Details: for IC50: curve of first compound; for viability, T/C: stronger effect = lower value; active = viability on the fitted dose curve at most 10% of control; inactive = the rest
How it was run: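 Complex spheroids of tumor cells with HUVEC and human MSCs, exposed to iadademstat combined with other agents. Each agent tested in half-log steps from near clinical Cmax (else 10 microM top), DMSO ≤0.25%.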

COc1cc(C2c3cc4c(cc3C(OC3OC5COC(C)OC5C(O)C3O)C3COC(=O)C23)OCO4)cc(OC)c1O (stereo not given) + NC1CCC(NC2CC2c2ccccc2)CC1
inactive: viability, T/C (second compound 0.1 µM, first compound 0.00949 µM) 94.1% | viability, T/C (second compound 0.1 µM, first compound 0.03 µM) 97.2% | viability, T/C (second compound 0.1 µM, first compound 0.0949 µM) 113% | viability, T/C (second compound 0.1 µM, first compound 0.3 µM) 104% | viability, T/C (second compound 0.1 µM, first compound 0.949 µM) 87.1% | viability, T/C (second compound 0.1 µM, first compound 3 µM) 59.7% | viability, T/C (second compound 0.316 µM, first compound 0.00949 µM) 102% | viability, T/C (second compound 0.316 µM, first compound 0.03 µM) 90.1% | viability, T/C (second compound 0.316 µM, first compound 0.0949 µM) 104% | viability, T/C (second compound 0.316 µM, first compound 0.3 µM) 104% | viability, T/C (second compound 0.316 µM, first compound 0.949 µM) 94.7% | viability, T/C (second compound 0.316 µM, first compound 3 µM) 66.1% | viability, T/C (second compound 1 µM, first compound 0.00949 µM) 89.5% | viability, T/C (second compound 1 µM, first compound 0.03 µM) 105% | viability, T/C (second compound 1 µM, first compound 0.0949 µM) 98.8% | viability, T/C (second compound 1 µM, first compound 0.3 µM) 103% | viability, T/C (second compound 1 µM, first compound 0.949 µM) 93.4% | viability, T/C (second compound 1 µM, first compound 3 µM) 70.3% | viability, T/C (second compound 3.16 µM, first compound 0.00949 µM) 120% | viability, T/C (second compound 3.16 µM, first compound 0.03 µM) 91.2% | viability, T/C (second compound 3.16 µM, first compound 0.0949 µM) 104% | viability, T/C (second compound 3.16 µM, first compound 0.3 µM) 110% | viability, T/C (second compound 3.16 µM, first compound 0.949 µM) 89.6% | viability, T/C (second compound 3.16 µM, first compound 3 µM) 55.9% | viability, T/C (second compound 10 µM, first compound 0.00949 µM) 103% | viability, T/C (second compound 10 µM, first compound 0.03 µM) 91.9% | viability, T/C (second compound 10 µM, first compound 0.0949 µM) 95.5% | viability, T/C (second compound 10 µM, first compound 0.3 µM) 96.3% | viability, T/C (second compound 10 µM, first compound 0.949 µM) 81.6% | viability, T/C (second compound 10 µM, first compound 3 µM) 59.1%
> 3 µM: IC50 (second compound 0.1 µM) | IC50 (second compound 0.316 µM) | IC50 (second compound 1 µM) | IC50 (second compound 3.16 µM) | IC50 (second compound 10 µM)
